The source of these data is US20120219615A1, “Therapeutic Use of a TLR Agonist and Combination Therapy” (The Trustees of the University of Pennsylvania, priority 2010, published 2012).

Bounds are passed on as bounds.

Holding throughout (format): cell-based
The target in one assay is T1, TLR3 (Homo sapiens, UniProt O15455).
T1 sequence (O15455 24-904): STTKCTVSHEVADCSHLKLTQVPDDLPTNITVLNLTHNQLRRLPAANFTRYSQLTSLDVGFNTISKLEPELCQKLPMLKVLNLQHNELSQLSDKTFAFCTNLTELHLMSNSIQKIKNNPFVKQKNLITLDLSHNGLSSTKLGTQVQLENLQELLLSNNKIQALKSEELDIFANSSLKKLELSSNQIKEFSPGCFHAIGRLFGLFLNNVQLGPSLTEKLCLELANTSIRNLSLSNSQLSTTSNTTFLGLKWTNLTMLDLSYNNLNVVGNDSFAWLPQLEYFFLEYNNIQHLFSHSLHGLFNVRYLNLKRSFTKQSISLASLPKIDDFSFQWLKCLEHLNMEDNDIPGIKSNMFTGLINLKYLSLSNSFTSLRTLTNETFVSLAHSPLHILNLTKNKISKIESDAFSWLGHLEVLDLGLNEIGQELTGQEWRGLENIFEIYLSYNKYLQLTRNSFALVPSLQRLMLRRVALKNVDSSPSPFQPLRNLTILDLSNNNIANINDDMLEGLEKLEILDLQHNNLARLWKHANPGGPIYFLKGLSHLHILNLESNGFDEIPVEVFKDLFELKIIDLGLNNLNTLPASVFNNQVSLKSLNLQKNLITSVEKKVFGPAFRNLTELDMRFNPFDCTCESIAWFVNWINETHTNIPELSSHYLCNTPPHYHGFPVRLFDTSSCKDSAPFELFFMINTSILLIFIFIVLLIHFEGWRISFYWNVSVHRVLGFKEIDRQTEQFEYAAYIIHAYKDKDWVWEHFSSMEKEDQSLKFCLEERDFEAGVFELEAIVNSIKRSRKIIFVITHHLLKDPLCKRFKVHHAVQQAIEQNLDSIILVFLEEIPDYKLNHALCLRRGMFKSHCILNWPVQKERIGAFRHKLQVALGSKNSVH
Put plainly: Activity on TLR3. The settings on record: concentrations up to 25 μM. The procedure: (§1) The half-maximal effective concentration (EC50) for VTX-2337 activation of TLR8 and TLR7 was assessed in peripheral blood mononuclear cells (PBMCs) from 15 healthy donors and also in HEK293 cells transfected with TLR8 or TLR7 and an NF-κB driven reporter gene. […] Also it was observed that VTX-2337 had no activity on TLR2, TLR3, TLR4, TLR5, TLR6, or TLR9 at concentrations up to 25 μM.

In assay [1] the target is T2, TLR8 (Homo sapiens, UniProt Q9NR97).
T2 construct: assessed in peripheral blood mononuclear cells (PBMCs) from 15 healthy donors; endogenous in cells; host or cells: PBMCs from 15 healthy donors
T2 sequence (Q9NR97 27-1041): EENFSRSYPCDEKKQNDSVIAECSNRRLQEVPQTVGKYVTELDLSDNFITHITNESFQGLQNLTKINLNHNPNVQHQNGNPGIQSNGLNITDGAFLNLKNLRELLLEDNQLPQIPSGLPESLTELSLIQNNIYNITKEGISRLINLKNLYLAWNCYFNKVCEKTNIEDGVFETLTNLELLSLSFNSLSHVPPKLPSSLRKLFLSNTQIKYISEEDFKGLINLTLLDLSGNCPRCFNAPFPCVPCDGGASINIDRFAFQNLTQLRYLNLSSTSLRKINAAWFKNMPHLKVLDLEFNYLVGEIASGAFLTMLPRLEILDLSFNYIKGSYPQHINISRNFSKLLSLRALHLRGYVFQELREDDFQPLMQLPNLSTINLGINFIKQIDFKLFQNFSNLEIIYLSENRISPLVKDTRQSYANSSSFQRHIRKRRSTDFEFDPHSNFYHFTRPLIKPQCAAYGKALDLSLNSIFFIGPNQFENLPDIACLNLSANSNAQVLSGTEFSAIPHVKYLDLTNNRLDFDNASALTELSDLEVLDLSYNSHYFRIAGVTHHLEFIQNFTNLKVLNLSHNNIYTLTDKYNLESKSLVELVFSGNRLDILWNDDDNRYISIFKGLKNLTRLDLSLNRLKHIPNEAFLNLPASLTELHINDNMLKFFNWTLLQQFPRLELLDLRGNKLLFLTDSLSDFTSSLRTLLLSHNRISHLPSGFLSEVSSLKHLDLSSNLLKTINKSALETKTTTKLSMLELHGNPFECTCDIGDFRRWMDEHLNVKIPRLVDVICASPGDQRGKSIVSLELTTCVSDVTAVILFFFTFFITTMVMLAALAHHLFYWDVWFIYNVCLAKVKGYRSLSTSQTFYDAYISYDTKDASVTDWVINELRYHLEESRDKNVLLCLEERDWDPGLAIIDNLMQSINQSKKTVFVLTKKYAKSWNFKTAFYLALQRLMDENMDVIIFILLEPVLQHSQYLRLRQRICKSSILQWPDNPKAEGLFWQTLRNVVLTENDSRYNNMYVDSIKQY
Put plainly: HEK293 cells transfected with TLR8 and NF-κB driven reporter gene. The note with it: HEK293 transfectants. The protocol: as §1

The target in assay [2] is T2, TLR8. Put plainly: TNFα production in PBMCs (marker of TLR8 activation). The protocol:
as §1

One may read the EC50 as the midpoint of the concentration-response curve. As to `CCCN(CCC)C(=O)C1=Cc2ccc(-c3ccc(C(=O)N4CCCC4)cc3)cc2N=C(N)C1` [VTX-2337, 2-amino-N,N-dipropyl-8-(4-(pyrrolidine-1-carbonyl)phenyl)-3H-benzo[b]azepine-4-carboxamide], the “activity on TLR3” value on TLR3 is on record as “no activity”. For the same compound, the EC50 on TLR8 [1] was 0.07 µM; on TLR8 [2] (PBMCs from 15 healthy donors), 0.074 µM. In addition, the “selectivity for TLR8 relative to TLR7” value at TLR8 [2] (PBMCs, TNFα vs IFNα EC50) is recorded as more than 45 fold.
